Twelve molecules from US10112899B2 (ViiV HEALTHCARE UK LIMITED, priority 2014, dated 2018) can be followed below.

As a reminder, the IC50 is the concentration at which inhibition is half-maximal. The low end stands for greater potency in that assay, the high end for weaker potency in that assay.

In the test the test system is HIV in the HTLV-1 transformed cell line MT-4. Nature of the test: organism not typed. The test is classed as cell-based. The following applies: MT4, 96 h, MT-4 cells; luciferase/cell titer glo readout after 96 hours; 10 point dose response. (In general: ATP-based viability assays read luminescence as a measure of living cells.)
In the case of `Cc1ccc(-c2c(C)c3c(c(C)c2[C@H](OC(C)(C)C)C(=O)O)CN(C(=O)c2cc(F)ccc2F)C3)cc1` [Example 262, (S)-2-(tert-butoxy)-2-(2-(2,5-difluorobenzoyl)-4,7-dimethyl-6-(p-tolyl)isoindolin-5-yl)acetic acid], the IC50 came to 5 nM.

With `Cc1c2c(c(C)c([C@H](OC(C)(C)C)C(=O)O)c1-c1ccc3c(c1)CCCO3)CN(C(=O)c1cccc(F)c1)C2` [Example 304, (S)-2-(tert-butoxy)-2-(6-(chroman-6-yl)-2-(3-fluorobenzoyl)-4,7-dimethylisoindolin-5-yl)acetic acid], the IC50 was 4 nM.

`Cc1ccc(-c2c(C)c3c(c(C)c2[C@H](OC(C)(C)C)C(=O)O)CN(C(=O)c2cnc(-c4ccccc4)o2)C3)cc1` [Example 274, (S)-2-(tert-butoxy)-2-(4,7-dimethyl-2-(2-phenyloxazole-5-carbonyl)-6-(p-tolyl)isoindolin-5-yl)acetic acid] registered an IC50 of 297 nM.

Consider `Cc1c2c(c(C)c([C@H](OC(C)(C)C)C(=O)O)c1C1=CCC(C)(C)CC1)CN(C(=O)c1cccc(F)c1)C2` [Example 302, (S)-2-(tert-butoxy)-2-(6-(4,4-dimethylcyclohex-1-en-1-yl)-2-(3-fluorobenzoyl)-4,7-dimethylisoindolin-5-yl)acetic acid], for which the IC50 worked out at 4 nM.

Molecule `Cc1ccc(-c2c(C)c3c(c(C)c2[C@H](OC(C)(C)C)C(=O)O)CNC3)cc1` [Example 124, (S)-2-(tert-butoxy)-2-(4,7-dimethyl-6-(p-tolyl)isoindolin-5-yl)acetic acid] gave an IC50 of 1090 nM.

In the case of `Cc1ccc(-c2c(C)c3c(c(C)c2[C@H](OC(C)(C)C)C(=O)O)CN(C(=O)CN2CCCCC2)C3)cc1` [Example 106, (S)-2-(tert-butoxy)-2-(4,7-dimethyl-2-(2-(piperidin-1-yl)acetyl)-6-(p-tolyl)isoindolin-5-yl)acetic acid], the 50% inhibitory concentration (IC50) is 143 nM.

Regarding `Cc1ccc(-c2c(C)c3c(c(C)c2[C@H](OC(C)(C)C)C(=O)O)CN(S(=O)(=O)N2CCCCC2)C3)cc1` [Example 50, (2S)-2-(tert-butoxy)-2-[4,7-dimethyl-6-(4-methylphenyl)-2-(piperidine-1-sulfonyl)-2,3-dihydro-1H-isoindol-5-yl]acetic acid], the half-inhibitory concentration (IC50) was determined as 29 nM.

`Cc1ccc(-c2c(C)c3c(c(C)c2[C@H](OC(C)(C)C)C(=O)O)CN(C(=O)N2CCC(F)CC2)C3)cc1` [Example 89, (S)-2-(tert-butoxy)-2-(2-(4-fluoropiperidine-1-carbonyl)-4,7-dimethyl-6-(p-tolyl)isoindolin-5-yl)acetic acid] showed an IC50 of 11 nM.

`Cc1ccc(-c2c(C)c3c(c(C)c2[C@H](OC(C)(C)C)C(=O)O)CN(C(=O)c2ccnn2C)C3)cc1` [Example 223, (S)-2-(tert-butoxy)-2-(4,7-dimethyl-2-(1-methyl-1H-pyrazole-5-carbonyl)-6-(p-tolyl)isoindolin-5-yl)acetic acid]: the half-maximal inhibitory concentration (IC50) was found to be 13 nM.

In turn, `Cc1c(-c2c(C)c3c(c(C)c2[C@H](OC(C)(C)C)C(=O)O)CN(C(=O)N2CCC[C@@H]2C)C3)cc(F)c2c1CCCO2` (atropisomer, axis not shown; (M)) [Example 212, (S)-2-(tert-butoxy)-2-((M)-6-(8-fluoro-5-methylchroman-6-yl)-4,7-dimethyl-2-((S)-2-methylpyrrolidine-1-carbonyl)isoindolin-5-yl)acetic acid] yielded an IC50 of 2 nM.

Turning to `COc1cc(F)cc(C(=O)N2Cc3c(C)c(-c4ccc(C)cc4)c([C@H](OC(C)(C)C)C(=O)O)c(C)c3C2)c1` [Example 122, (S)-2-(tert-butoxy)-2-(2-(3-fluoro-5-methoxybenzoyl)-4,7-dimethyl-6-(p-tolyl)isoindolin-5-yl)acetic acid], half-maximal inhibition (IC50) required 3 nM.

`Cc1ccc(-c2c(C)c3c(c(C)c2[C@H](OC(C)(C)C)C(=O)O)CN(C(=O)N2CCC(Cc4ccccc4)CC2)C3)cc1` [Example 95, (S)-2-(2-(4-benzylpiperidine-1-carbonyl)-4,7-dimethyl-6-(p-tolyl)isoindolin-5-yl)-2-(tert-butoxy)acetic acid] returned an IC50 of 778 nM.
